# Patent US20150320773A1, “TREATMENT OF INFLAMMATION” (Vascular Biogenics Ltd., priority 2011, published 2015)
# Like-named read-outs stand apart in the source and are kept apart here.
# Experiments:
# TLR5 = TLR5 (Mus musculus, UniProt Q9JLF7); settings: mouse BMDCs; flagellin; 1.7, 8.5 or 17 μM
# TLR7 = TLR7 (Mus musculus, UniProt P58681); settings: mouse BMDCs; R848; 1.7, 8.5 or 17 μM
# TLR9 = TLR9 (Mus musculus, UniProt Q9EQU3); settings: mouse BMDCs; CpG; 1.7, 8.5 or 17 μM
# IL-1 receptor (IL-1R) = IL-1 receptor (IL-1R) (Mus musculus, UniProt P13504); settings: mouse BMDCs; 1.7, 8.5 or 17 μM
# Sequence of IL-1 receptor (IL-1R) (P13504 20-576): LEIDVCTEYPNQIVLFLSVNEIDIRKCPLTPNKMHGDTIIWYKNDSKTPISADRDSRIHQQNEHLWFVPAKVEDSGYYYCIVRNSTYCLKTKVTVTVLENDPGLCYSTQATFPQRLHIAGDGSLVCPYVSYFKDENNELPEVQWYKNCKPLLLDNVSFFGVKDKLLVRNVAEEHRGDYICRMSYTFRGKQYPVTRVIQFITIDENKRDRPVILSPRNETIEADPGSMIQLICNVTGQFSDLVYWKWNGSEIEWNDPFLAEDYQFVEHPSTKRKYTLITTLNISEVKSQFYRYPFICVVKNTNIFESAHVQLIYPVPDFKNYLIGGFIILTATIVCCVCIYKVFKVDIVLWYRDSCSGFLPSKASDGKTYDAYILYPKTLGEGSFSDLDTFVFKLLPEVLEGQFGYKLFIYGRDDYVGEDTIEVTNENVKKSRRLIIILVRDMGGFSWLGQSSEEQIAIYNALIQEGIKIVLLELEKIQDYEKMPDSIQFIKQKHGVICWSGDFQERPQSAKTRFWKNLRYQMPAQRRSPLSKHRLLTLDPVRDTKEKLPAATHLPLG
# TLR2 = TLR2 (Homo sapiens, UniProt O60603); settings: 1 μM SAA, 5 μg/ml VB-201
# Sequence of TLR2 (O60603 21-784): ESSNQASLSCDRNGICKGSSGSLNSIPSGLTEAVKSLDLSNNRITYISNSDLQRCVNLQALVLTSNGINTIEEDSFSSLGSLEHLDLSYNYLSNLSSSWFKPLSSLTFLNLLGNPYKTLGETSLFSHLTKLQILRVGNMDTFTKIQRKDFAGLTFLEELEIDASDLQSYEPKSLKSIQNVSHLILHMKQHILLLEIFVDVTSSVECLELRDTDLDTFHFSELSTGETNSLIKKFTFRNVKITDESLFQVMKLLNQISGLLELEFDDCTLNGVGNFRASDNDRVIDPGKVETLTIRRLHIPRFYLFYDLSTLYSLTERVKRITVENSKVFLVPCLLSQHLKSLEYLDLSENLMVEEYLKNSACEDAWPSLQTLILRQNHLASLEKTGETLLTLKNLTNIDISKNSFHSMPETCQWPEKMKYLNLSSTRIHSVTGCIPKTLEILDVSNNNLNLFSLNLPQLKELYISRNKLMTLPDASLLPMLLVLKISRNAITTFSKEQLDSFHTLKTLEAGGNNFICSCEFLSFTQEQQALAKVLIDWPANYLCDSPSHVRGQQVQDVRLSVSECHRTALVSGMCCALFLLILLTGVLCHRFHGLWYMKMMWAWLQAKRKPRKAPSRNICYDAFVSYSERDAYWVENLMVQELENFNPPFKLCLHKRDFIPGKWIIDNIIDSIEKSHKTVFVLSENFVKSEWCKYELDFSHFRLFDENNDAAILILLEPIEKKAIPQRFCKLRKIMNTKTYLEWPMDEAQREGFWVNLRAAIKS
# RAW 264.7 macrophages = settings: 0, 8.5 or 17 μM VB-201; streptavidin-APC
# Description: Cells were washed and LPS binding was detected using streptavidin-APC.
# CD14 is known to bind to lipopolysaccharide (LPS).
# [1] = test system: Human monocytes (CD14+ cells); test: In vitro cell migration (trans-well chemotaxis) assay of human monocytes; type: cell-based
# Description: Following incubation, cells were loaded to the upper chamber and allowed to migrate for 3.5 hours towards 0.5% fetal bovine serum/RPMI-1640 medium supplemented with recombinant human MCP-1 and RANTES (50 ng/ml each).
# In order to further ascertain the significance of ERK1/2 phosphorylation and MEK1/2 phosphorylation to monocyte chemotaxis, the effect of the RAF inhibitor GW5074, which reduces MEK and ERK phosphorylation, on monocyte chemotaxis was determined in a trans-well migration assay using a combination of MCP-1 ([…]) and RANTES (70 ng/ml) as attractant. Monocytes were pre-treated with 5 μM GW5074 for 30 minutes prior to seeding in the migration chamber.
# For this purpose, monocytes from healthy donors were pre-incubated for 30 min with either solvent (0.005% ethanol/PBS), phosphatidylcholine (PC; 5 μg/ml), partially oxidized PAPC (24 h oxidation; 40 μg/ml) or PGPC (5 μg/ml), and allowed to migrate towards recombinant human MCP-1 (CCL2; ligand for CCR2) and RANTES (CCL5; ligand for CCR1, CCR3, CCR5, US28) as attractants (50 ng/ml each). […]
# [2] = test system: Human monocyte-derived dendritic cells (DCs); test: cAMP accumulation assay; type: cell-based; settings: 4 hours; VB-201 1-5 μg/ml; oxidized PAPC escalating doses; forskolin positive control
# Description: Cells were incubated for 4 hours at 37° C. in the presence of the phosphodiesterase inhibitors IBMX (Calbiochem; 0.5 mM) and RO-20-1724 (Biomol; 0.5 mM) to prevent cAMP degredation. For the quantification of [^3H]cAMP formation, the incubation was terminated by removal of the medium and addition of 2.5% perchloric acid containing 0.1 mM unlabeled cAMP (Sigma), followed by neutralization with 4.2 M KOH and 1.85 M K2CO3.
# monocytes = test: Phagocytosis assay (whole blood), monocytes; type: cell-based, human; set-up: dose or concentration left out as unconfirmed; settings: VB-201 doses of 5 or 10
# Description: Phagocytosis assays were conducted using pHrodo™ Phagocytosis Particle Labeling Kit (Invitrogen) according to the manufacturer protocol. […] Then, pHrodo dye-labeled E. coli bacteria were mixed with the treated blood samples, in 20:1 ratio of pHrodo™ particles to phagocytosing cells and incubated for additional 15 minutes. Each sample was analyzed both at 4° C. (no phagocytosis, negative control) and 37° C. Following incubation, red blood cells were removed by lysis and the samples were washed 3 times with wash buffer. For gating on specific subpopulations, cells were labeled with anti-CD14-FITC (monocytes and granulocytes marker, BD Biosciences) and anti-CD66b-PerCP/Cy5.5 (granulocytes marker, BioLegend) antibodies. pHrodo fluorescence intensity was analyzed by FACS.
# To this end, a phagocytosis assay was performed on whole blood from healthy donors, and the capacity of leukocyte subsets to phagocytose PE-labeled E. Coli particles was tested in presence or absence of VB-201. As a negative control, we used blood without bacterial particles, while a positive control included blood and labeled-bacterial particles incubated at 37° C. Cells were then stained with CD14 and CD66b antibodies to differentiate between monocytes and granulocytes and were analyzed by FACS.
# [3] = test system: MCF-7 human breast cancer cells; test: Wound-healing 'scratch' assay; type: cell-based; settings: data not shown
# [4] = test system: kinases, phosphatases, ion channels/ransporters; test: Selectivity: effect on activity of additional proteins
# [5] = test system: G-coupled protein receprors (GPRC); test: as above
# COX-1 = COX-1 (Homo sapiens, UniProt P23219); settings: concentrations of up to 10 μM; data not shown
# COX-2 = COX-2 (Homo sapiens, UniProt P35354); settings: concentrations of up to 10 μM; data not shown
# Sequence of COX-2 (P35354 18-604): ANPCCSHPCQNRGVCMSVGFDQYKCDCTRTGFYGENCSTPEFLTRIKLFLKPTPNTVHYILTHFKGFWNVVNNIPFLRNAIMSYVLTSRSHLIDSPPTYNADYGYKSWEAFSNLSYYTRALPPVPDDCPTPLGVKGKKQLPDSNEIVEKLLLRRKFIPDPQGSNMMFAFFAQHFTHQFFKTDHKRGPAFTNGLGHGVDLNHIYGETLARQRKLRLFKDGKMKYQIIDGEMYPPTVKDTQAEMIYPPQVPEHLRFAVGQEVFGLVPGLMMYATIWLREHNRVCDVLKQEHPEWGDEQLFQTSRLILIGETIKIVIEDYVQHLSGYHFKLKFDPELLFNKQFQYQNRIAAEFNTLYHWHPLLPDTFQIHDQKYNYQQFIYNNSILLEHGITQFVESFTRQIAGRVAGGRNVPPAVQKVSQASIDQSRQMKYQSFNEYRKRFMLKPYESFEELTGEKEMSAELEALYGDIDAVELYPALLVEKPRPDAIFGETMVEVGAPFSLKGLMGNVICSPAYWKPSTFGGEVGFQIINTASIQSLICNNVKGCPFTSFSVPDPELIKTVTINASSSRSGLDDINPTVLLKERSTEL
# HMG-CoA reductase = HMG-CoA reductase (Homo sapiens, UniProt P04035); settings: concentrations of up to 10 μM; data not shown
# Sequence of HMG-CoA reductase (P04035 whole entry, species assumed): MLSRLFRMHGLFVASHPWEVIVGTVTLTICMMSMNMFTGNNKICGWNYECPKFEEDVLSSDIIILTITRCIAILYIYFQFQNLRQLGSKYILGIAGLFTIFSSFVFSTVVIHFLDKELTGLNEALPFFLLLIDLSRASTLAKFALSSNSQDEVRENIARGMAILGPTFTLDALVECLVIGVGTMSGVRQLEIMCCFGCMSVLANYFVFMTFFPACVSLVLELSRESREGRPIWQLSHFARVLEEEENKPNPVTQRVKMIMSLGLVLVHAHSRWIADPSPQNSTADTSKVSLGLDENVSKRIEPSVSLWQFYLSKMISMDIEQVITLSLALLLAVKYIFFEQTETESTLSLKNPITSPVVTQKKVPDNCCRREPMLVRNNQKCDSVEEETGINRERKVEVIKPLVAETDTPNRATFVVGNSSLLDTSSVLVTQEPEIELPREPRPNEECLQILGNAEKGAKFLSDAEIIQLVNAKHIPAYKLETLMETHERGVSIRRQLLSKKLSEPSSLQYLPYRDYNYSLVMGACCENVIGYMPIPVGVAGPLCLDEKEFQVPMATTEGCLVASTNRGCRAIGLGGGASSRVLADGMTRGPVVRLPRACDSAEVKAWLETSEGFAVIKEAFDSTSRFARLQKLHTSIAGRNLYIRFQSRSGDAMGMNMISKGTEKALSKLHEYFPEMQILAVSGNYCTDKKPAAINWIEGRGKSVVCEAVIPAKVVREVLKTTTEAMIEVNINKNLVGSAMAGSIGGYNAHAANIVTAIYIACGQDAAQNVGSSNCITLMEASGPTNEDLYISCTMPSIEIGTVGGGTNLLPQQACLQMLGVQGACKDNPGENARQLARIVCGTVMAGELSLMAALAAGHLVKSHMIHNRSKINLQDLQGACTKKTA
# CD4+ T-cells = test: Chemotaxis assay of CD4+ T-cells; settings: 5 μg/ml; RANTES (100 ng/ml) and SDF-1α (50 ng/ml)
# Description: Human monocytes (CD14+ cells) and CD4+ T-cells were isolated from whole blood of healthy donors. Following PBMCs separation from whole blood using Ficoll-Paque and leucosep tubes (Greiner Bio-One), CD14+/CD4+ cells were separated using specific anti-CD14/anti-CD4 micro beads, respectively (Miltenyi Biotech). Purity of the isolated populations was validated using specific antibodies by FACS analysis. […] For chemo-attraction of monocytes, RANTES (100 ng/ml), MIP-1α (50 ng/ml) or MCP-1 (50 ng/ml) were dissolved in 0.5% fetal bovine serum(FBS)/RPMI-1640 medium and placed at the lower chamber of QCM™ 24-well migration assay plate (Corning-Costar; 5 μm pores). For chemo-attraction of CD4+ cells, 0.5% FBS/RPMI-1640 solution containing RANTES (100 ng/ml) and SDF-1α (50 ng/ml) was used, using the same plate setting. Migration assay was conducted by seeding 300,000 treated cells in the upper chamber, followed by incubation of 3-4 hours. Subsequently, the number of cells which migrated to the medium in the lower compartment was determined by FACS.
# ApoE KO mice = test: Atherosclerosis study in ApoE KO mice
# Description: Dosing was performed once a day, for 8 weeks (n=1-12/group). […] Lesion area was calculated using a computerized analysis method (Image Pro Plus software, V. 4.5.1.29, Medical Cybernetics Corporation). Aorta lesion area was determined using the Image-Pro Plus software, which measured the staining area covered by Sudan IV stain adhering to the lesioned tissue. Lesion size in the aorta was measured and the percentage of lesioned area was calculated relative to the size of the entire aorta.
# Immunostaining was performed on frozen sections which were fixed with cold acetone and blocked with 4% normal rabbit serum/PBS (Vector Lab). Following incubation with Rat anti-mouse CD68 (Serotec NCA1957; 1:250) and anti-Rat biotinylated antibody (Vector Lab AB-4001; 1:200), signal was developed using Vectastain ABC-Alkaline phosphatase kit and Vector Red Substrate (Vector Lab). Mayer's Hematoxylin was used for counterstaining.
# human Neutrophils = test: Chemotaxis assay of human neutrophils; settings: 5 μg/ml; towards LPS or 10% FBS/MCP-3
# Description: Data are mean±SD from 3 different experiments performed in triplicates. […] Data are mean±SD from 4 different donors tested in triplicates.
# Sequence of TLR7 (P58681 27-1050): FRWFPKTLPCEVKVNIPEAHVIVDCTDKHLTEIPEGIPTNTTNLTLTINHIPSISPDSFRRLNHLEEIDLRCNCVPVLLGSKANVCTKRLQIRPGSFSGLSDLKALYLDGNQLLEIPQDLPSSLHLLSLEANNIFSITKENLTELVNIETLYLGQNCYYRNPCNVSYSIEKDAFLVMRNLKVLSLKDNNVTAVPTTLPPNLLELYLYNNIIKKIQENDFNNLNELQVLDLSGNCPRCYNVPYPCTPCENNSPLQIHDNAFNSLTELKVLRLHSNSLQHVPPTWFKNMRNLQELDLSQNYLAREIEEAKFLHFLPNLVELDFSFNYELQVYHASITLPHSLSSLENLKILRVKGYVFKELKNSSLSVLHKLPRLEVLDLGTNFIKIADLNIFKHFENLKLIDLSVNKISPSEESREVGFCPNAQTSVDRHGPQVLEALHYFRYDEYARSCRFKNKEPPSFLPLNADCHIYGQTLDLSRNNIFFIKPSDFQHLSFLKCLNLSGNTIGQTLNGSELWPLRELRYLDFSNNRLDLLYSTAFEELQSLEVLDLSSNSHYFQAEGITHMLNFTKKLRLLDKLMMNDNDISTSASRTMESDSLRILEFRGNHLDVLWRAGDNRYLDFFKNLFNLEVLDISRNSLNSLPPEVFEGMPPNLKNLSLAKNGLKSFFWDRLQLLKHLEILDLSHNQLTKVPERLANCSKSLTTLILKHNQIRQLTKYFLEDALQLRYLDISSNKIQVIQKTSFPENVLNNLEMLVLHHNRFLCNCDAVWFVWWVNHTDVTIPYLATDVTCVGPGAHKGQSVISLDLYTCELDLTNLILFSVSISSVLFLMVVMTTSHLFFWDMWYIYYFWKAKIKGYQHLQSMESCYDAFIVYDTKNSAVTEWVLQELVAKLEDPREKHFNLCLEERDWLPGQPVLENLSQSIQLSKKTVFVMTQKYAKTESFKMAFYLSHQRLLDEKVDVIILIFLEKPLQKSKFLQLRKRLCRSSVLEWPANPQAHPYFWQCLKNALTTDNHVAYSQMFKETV
# Sequence of TLR5 (Q9JLF7 27-859): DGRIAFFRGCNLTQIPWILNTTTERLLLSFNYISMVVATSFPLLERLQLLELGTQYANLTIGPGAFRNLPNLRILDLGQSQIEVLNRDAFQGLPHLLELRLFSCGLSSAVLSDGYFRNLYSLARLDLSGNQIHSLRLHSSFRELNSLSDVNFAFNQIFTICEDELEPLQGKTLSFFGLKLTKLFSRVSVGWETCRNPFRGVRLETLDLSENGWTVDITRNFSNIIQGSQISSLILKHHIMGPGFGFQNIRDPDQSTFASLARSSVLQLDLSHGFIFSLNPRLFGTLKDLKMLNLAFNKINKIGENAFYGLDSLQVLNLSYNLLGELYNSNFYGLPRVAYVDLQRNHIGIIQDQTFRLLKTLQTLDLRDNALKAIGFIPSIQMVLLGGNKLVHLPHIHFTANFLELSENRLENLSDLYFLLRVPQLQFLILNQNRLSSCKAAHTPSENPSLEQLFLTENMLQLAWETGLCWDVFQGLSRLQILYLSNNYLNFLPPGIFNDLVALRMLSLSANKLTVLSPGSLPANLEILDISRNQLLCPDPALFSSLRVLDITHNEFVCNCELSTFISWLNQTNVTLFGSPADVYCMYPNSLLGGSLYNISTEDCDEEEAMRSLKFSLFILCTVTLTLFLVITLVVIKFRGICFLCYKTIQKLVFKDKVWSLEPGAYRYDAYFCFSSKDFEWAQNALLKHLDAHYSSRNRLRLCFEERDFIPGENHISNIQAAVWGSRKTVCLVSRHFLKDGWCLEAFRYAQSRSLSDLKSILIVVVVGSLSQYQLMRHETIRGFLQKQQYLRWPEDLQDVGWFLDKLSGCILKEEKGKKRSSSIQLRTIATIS
smiles,measurement,setting,value
"CCCCCCCCCCCCCCCCOC[C@H](COP(=O)([O-])OCC[N+](C)(C)C)OCCCCC(=O)O [VB-201, (R)-1-hexadecyl-2-(4′-carboxyl)butyl-sn-glycero-3-phosphocholine]",p38 phosphorylation following activation of TLR5,TLR5,no apparent effect
same,p38 phosphorylation following activation of TLR7,TLR7,no apparent effect
same,p38 phosphorylation following activation of TLR9,TLR9,no apparent effect
same,p38 phosphorylation following activation of IL-1 receptor,IL-1 receptor (IL-1R),no apparent effect
same,"activation of p38, ERK1/2 and the NFκB pathway following activation of TLR2 by serum amyloid A",TLR2; THP-1 cells,"inhibited activation of p38, ERK1/2 and the NFκB pathway"
same,"activation of p38, ERK1/2 and the NFκB pathway following activation of TLR2 by serum amyloid A",TLR2; human CD14+ cells,"inhibited activation of p38, ERK1/2 and the NFκB pathway"
same,binding of biotinylated LPS to macrophages,RAW 264.7 macrophages,inhibited binding of biotinylated LPS to macrophages in a dose dependent manner
same,C-reactive protein-induced chemotaxis of human monocytes,"[1]; 8.5 μM VB-201, 30 min, 50 ug/ml CRP, 3.5 hours, p<0.01",inhibit chemotaxis induced by CRP
same,reduction of monocyte chemotaxis towards MCP-1 and RANTES (50 ng/ml each),"[1]; 30 min pre-incubation, PC 5 μg/ml, partially oxidized PAPC 40 μg/ml, PGPC 5 μg/ml, VB-201 5 μg/ml",profound inhibition of monocyte chemotaxis
same,"reduction of monocyte migration, MCP-1 as chemoattractant","[1]; VB-201 5 μg/ml, MCP-1 50 ng/ml, compared to solvent control",approximately 80%
same,"reduction of monocyte migration, MIP-1α as chemoattractant","[1]; VB-201 5 μg/ml, MIP-1α 50 ng/ml, compared to solvent control",~68%
same,"reduction of monocyte migration, RANTES as chemoattractant","[1]; VB-201 5 μg/ml, RANTES 100 ng/ml, compared to solvent control",~72%
same,monocyte chemotaxis towards the compound (cell attractant in lower chamber),[1]; data not shown,no monocyte chemotaxis towards VB-201 occurred
same,inhibition of monocyte migration towards HUVEC growth medium,[1]; dose of 5 μg/ml,about 60%
same,monocyte migration towards HUVEC growth medium,[1]; escalating doses,reduced the number of migrating cells in a dose-dependent fashion
same,intracellular cAMP levels,[2],not affected
same,monocyte phagocytosis capacity,monocytes,did not have any significant effect
same,cell migration in wound-healing scratch assay,[3],no effect on cell migration
same,"inhibition of kinases, phosphatases, ion channels/ransporters",[4],No inhibition
same,agonistic or antagonistic effect on G-coupled protein receprors (GPRC),[5],no agonistic or antagonistic effect
same,inhibition of COX-1,COX-1,No inhibition
same,inhibition of COX-2,COX-2,No inhibition
same,inhibition of HMG-CoA reductase,HMG-CoA reductase,No inhibition
same,CD4 cell chemotaxis,CD4+ T-cells,unable to find any inhibition
same,plaque formation relative to the PBS control,"ApoE KO mice; 1.5 mg/kg, daily oral gavage, 8 weeks",significantly reduced plaque formation
same,fatty streaks,"ApoE KO mice; daily oral gavage, 8 weeks, 0.15 or 1.5 mg/kg",markedly reduced
same,macrophage accumulation in the aortic sinus lesion (anti-CD68),ApoE KO mice; relative to controls,reduced
same,chemotaxis of human Neutrophils,human Neutrophils,no effect on chemotaxis
